Test results as given in ChEMBL document CHEMBL1782014, “20(R)-ginsenoside Rh2, not 20(S), is a selective osteoclastgenesis inhibitor without any cytotoxicity” (Bioorg Med Chem Lett, 2009).

Assays:
[1] = Toxicity in RANKL and TNFalpha-pretreated mouse RAW264 cells assessed as inhibition of cell proliferation incubated for 3 days by WST-1 assay; details: RAW264 cells pretreated with RANKL and TNFalpha
[2] = system: Radical scavenging activity; assay: Antioxidant activity assessed as DPPH radical scavenging activity at 1.6 mM after 20 mins by UV spectrophotometry; type: functional
[3] = Inhibition of RANKL and TNF-alpha-induced osteoclastogenesis in mouse RAW264 cells incubated for 3 days by TRAP staining based method; type: functional, cell-based; details: RAW264.7, 72 h
[4] = system: Radical scavenging activity; assay: Antioxidant activity assessed as DPPH radical scavenging activity at 0.2 mM after 20 mins by UV spectrophotometry; type: functional
[5] = Toxicity in RANKL and TNFalpha-pretreated mouse RAW264 cells assessed as effect on cell proliferation upto 50 uM incubated for 3 days by WST-1 assay; details: raw264, 72 h
[6] = Toxicity in RANKL and TNFalpha-pretreated mouse RAW264 cells assessed as inhibition of cell proliferation upto 100 uM incubated for 3 days by WST-1 assay; details: raw264, 72 h

Structure (SMILES)	IC50 at 3 days [1]	Activity [2]	IC50 [3]	Activity [4]	Activity [5]	Activity [6]
CC(C)=CCC[C@](C)(O)[C@H]1CC[C@]2(C)[C@@H]1[C@H](O)C[C@@H]1[C@@]3(C)CC[C@H](O[C@@H]4O[C@H](CO)[C@@H](O)[C@H](O)[C@H]4O)C(C)(C)[C@@H]3CC[C@]12C [GINSENOSIDE RH2]	62 µM	< 10%	32 µM			
Cc1c(C)c2c(c(C)c1O)CC[C@@](C)(CCC[C@H](C)CCC[C@H](C)CCCC(C)C)O2				96%		
CC(C)=CCC[C@@](C)(O)[C@H]1CC[C@]2(C)[C@@H]1[C@H](O)C[C@@H]1[C@@]3(C)CC[C@H](O[C@@H]4O[C@H](CO)[C@@H](O)[C@H](O)[C@H]4O)C(C)(C)[C@@H]3CC[C@]12C		< 10%	12 µM		Non-toxic	Non-toxic
